Here are results for 15 compounds from patent US10265422B2, “Ethylenediaminetetraacetic acid bis(amide) derivatives and their respective complexes with Mn(II) ion for use as MRI contrast agent” (BRACCO IMAGING S.P.A., priority 2015, dated 2019).

Read-outs that look alike come from different tables or passages of the source.

Data set [1] is described as follows: Decomplexation of Mn(II) complexes: transmetallation with Cu2+ ions followed by spectrophotometry. The data set is classed as physicochemical. As to conditions: pH 7.4, 25 °C, read-out: t½ (half-life of decomplexation) (converted). As for the experimental part:
These studies were performed by following the transmetallation reaction between the Mn^2+ based complexes and Cu^2+ ions by spectrophotometry as reported in […]. Inorganic Chemistry (2012), 51, 10065-7.

A short description of data set [2]: Relaxivity r1 in water at 20 MHz. The data set is classed as physicochemical. As to conditions: absence of HSA.
Data set [3] has as its target human serum albumin (HSA) (Homo sapiens, UniProt P02768). As to conditions: presence of HSA, 20 MHz.
[4] abbreviates: calculated using rate constants.

human serum albumin (HSA), sequence (P02768 25-609): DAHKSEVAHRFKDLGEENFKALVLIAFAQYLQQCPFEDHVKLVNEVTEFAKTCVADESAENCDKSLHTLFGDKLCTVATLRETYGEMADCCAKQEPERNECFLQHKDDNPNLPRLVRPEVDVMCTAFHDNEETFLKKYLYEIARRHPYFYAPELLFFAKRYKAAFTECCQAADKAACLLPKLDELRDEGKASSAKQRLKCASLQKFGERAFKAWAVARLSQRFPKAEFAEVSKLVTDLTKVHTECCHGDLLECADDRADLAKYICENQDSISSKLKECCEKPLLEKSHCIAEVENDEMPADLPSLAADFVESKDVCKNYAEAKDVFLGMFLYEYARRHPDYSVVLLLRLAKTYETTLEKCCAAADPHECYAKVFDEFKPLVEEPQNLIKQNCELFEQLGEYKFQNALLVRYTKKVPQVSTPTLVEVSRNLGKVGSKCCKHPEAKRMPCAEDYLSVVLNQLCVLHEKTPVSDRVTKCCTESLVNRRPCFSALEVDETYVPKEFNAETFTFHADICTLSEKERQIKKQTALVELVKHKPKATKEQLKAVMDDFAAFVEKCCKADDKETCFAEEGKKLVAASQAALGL

What is called half-life is how long it takes for the measured level to halve. As to `O=C(O)CN(CC(=O)N1CCCCC1)C1CCCCC1N(CC(=O)O)CC(=O)N1CCCCC1` (stereo not drawn) [drawing 29], in data set [1] (setting [4]), the half-life was 285 h.

Turning to `O=C(O)CN(CC(=O)N1CCCCC1)c1ccccc1N(CC(=O)O)CC(=O)N1CCCCC1` [drawing 27], the “r1 (relaxivity)” value in data set [2] (25 °C) was determined as 4.60 mM⁻¹ s⁻¹; in data set [2] (37 °C), 3.50 mM⁻¹ s⁻¹. Moreover, the “r1 HSA (relaxivity)” value in data set [3] (25 °C) was 9.09 mM⁻¹ s⁻¹; in data set [3] (37 °C) it was 6.78 mM⁻¹ s⁻¹.

For the compound `O=C(O)CN(CC(=O)N1CCCCC1)c1ccccc1N(CC(=O)O)CC(=O)N1CCCCC1` [drawing 40], in data set [1] (footnote: half-life in seconds), the half-life is 0.0231 h.

For the compound `O=C(O)CN(CC(=O)N1CCC(Cc2ccccc2)CC1)c1ccccc1N(CC(=O)O)CC(=O)N1CCC(Cc2ccccc2)CC1` [drawing 41], the half-life in data set [1] (footnote: half-life in seconds) is 0.0167 h.

On to `CN(C)C(=O)CN(CC(=O)O)C1CCCCC1N(CC(=O)O)CC(=O)N(C)C` (stereo not drawn) [drawing 38], for which the half-life in data set [1] (setting [4]) was 131 h.

As to `CCCCNC(=O)CN(CC(=O)O)C1CCCCC1N(CC(=O)O)CC(=O)NCCCC` (stereo not drawn) [drawing 26], the entries for the “r1 (relaxivity)” value in data set [2] (25 °C) and in data set [2] (37 °C) were 4.64 mM⁻¹ s⁻¹ and 3.62 mM⁻¹ s⁻¹, respectively. Moreover, the “r1 HSA (relaxivity)” value amounted to 6.55 mM⁻¹ s⁻¹ in data set [3] (25 °C) and 5.37 mM⁻¹ s⁻¹ in data set [3] (37 °C).

In the case of `CCCCNC(=O)CN(CC(=O)O)C1CCCCC1N(CC(=O)O)CC(=O)NCCCC` (stereo not drawn) [drawing 39], the half-life in data set [1] (setting [4]) is 57 h.

On to `O=C(O)CN(CC(=O)N1CCOCC1)C1CCCCC1N(CC(=O)O)CC(=O)N1CCOCC1` (stereo not drawn), for which the “r1 (relaxivity)” value in data set [2] (25 °C) is 3.77 mM⁻¹ s⁻¹; in data set [2] (37 °C), 2.95 mM⁻¹ s⁻¹. In addition, the “r1 HSA (relaxivity)” value was found to be 7.64 mM⁻¹ s⁻¹ in data set [3] (25 °C) and 6.57 mM⁻¹ s⁻¹ in data set [3] (37 °C).

For the compound `O=C(O)CN(CC(=O)N1CCCCC1)C1CCCCC1N(CC(=O)O)CC(=O)N1CCCCC1` (stereo not drawn) [drawing 20], the “r1 (relaxivity)” value in data set [2] (25 °C) came to 4.43 mM⁻¹ s⁻¹; in data set [2] (37 °C) it was 3.49 mM⁻¹ s⁻¹. Moreover, the “r1 HSA (relaxivity)” value was 5.63 mM⁻¹ s⁻¹ in data set [3] (25 °C) and 4.56 mM⁻¹ s⁻¹ in data set [3] (37 °C).

On to `O=C(O)CN(CC(=O)N1CCC(Cc2ccccc2)CC1)c1ccccc1N(CC(=O)O)CC(=O)N1CCC(Cc2ccccc2)CC1` [drawing 28], for which the “r1 (relaxivity)” value is 5.29 mM⁻¹ s⁻¹ in data set [2] (25 °C) and 4.04 mM⁻¹ s⁻¹ in data set [2] (37 °C). Moreover, the entries for the “r1 HSA (relaxivity)” value in data set [3] (25 °C) and in data set [3] (37 °C) were 28.20 mM⁻¹ s⁻¹ and 23.84 mM⁻¹ s⁻¹, respectively.

As to `O=C(O)CN(CC(=O)N1CCC(C(=O)O)CC1)C1CCCCC1N(CC(=O)O)CC(=O)N1CCC(C(=O)O)CC1` (stereo not drawn), the “r1 (relaxivity)” value in data set [2] (25 °C) was 4.97 mM⁻¹ s⁻¹; in data set [2] (37 °C) it was 3.75 mM⁻¹ s⁻¹. Also, the figures for the “r1 HSA (relaxivity)” value in data set [3] (25 °C) and in data set [3] (37 °C) were 5.98 mM⁻¹ s⁻¹ and 4.65 mM⁻¹ s⁻¹, respectively.

Turning to `CN(C)C(=O)CN(CC(=O)O)C1CCCCC1N(CC(=O)O)CC(=O)N(C)C` (stereo not drawn) [drawing 25], the “r1 (relaxivity)” value worked out at 4.37 mM⁻¹ s⁻¹ in data set [2] (25 °C) and 3.43 mM⁻¹ s⁻¹ in data set [2] (37 °C). The “r1 HSA (relaxivity)” value turned out to be 13.10 mM⁻¹ s⁻¹ in data set [3] (25 °C) and 9.94 mM⁻¹ s⁻¹ in data set [3] (37 °C).

With `O=C(O)CN(CC(=O)N1CCC(Cc2ccccc2)CC1)C1CCCCC1N(CC(=O)O)CC(=O)N1CCC(Cc2ccccc2)CC1` (stereo not drawn), the “r1 (relaxivity)” value amounted to 5.56 mM⁻¹ s⁻¹ in data set [2] (25 °C) and 4.17 mM⁻¹ s⁻¹ in data set [2] (37 °C). Moreover, the “r1 HSA (relaxivity)” value in data set [3] (25 °C) was 19.44 mM⁻¹ s⁻¹; in data set [3] (37 °C), 18.16 mM⁻¹ s⁻¹.

As to `O=C(O)CN(CC(=O)NC(CO)CO)C1CCCCC1N(CC(=O)O)CC(=O)NC(CO)CO` (stereo not drawn) [drawing 24], the “r1 (relaxivity)” value in data set [2] (25 °C) was found to be 5.17 mM⁻¹ s⁻¹; in data set [2] (37 °C), 3.94 mM⁻¹ s⁻¹. The “r1 HSA (relaxivity)” value is 6.01 mM⁻¹ s⁻¹ in data set [3] (25 °C) and 4.44 mM⁻¹ s⁻¹ in data set [3] (37 °C).

As for `O=C(O)CN(CC(=O)NC(CO)CO)C1CCCCC1N(CC(=O)O)CC(=O)NC(CO)CO` (stereo not drawn) [drawing 37], in data set [1] (setting [4]), the half-life is 166 h.
